target: T1, 5-lipoxygenase (Rattus norvegicus, UniProt P12527); assay: Lipoxygenase IC50 Determination (in vitro 5-lipoxygenase inhibition, 20,000xg supernatant from homogenized RBL-1 cells); assay type: biochemical; settings: radiolabelled arachidonic acid, 2% DMSO, triplicate incubations, read-out: In vitro 5-lipoxygenase inhibitory potency IC50
T1 construct: 20,000xg supernatant from 6×10^4 homogenized RBL-1 cells; endogenous in cells; host or cells: RBL-1 cells (20,000xg supernatant of homogenate)
T1 sequence (P12527 1-673): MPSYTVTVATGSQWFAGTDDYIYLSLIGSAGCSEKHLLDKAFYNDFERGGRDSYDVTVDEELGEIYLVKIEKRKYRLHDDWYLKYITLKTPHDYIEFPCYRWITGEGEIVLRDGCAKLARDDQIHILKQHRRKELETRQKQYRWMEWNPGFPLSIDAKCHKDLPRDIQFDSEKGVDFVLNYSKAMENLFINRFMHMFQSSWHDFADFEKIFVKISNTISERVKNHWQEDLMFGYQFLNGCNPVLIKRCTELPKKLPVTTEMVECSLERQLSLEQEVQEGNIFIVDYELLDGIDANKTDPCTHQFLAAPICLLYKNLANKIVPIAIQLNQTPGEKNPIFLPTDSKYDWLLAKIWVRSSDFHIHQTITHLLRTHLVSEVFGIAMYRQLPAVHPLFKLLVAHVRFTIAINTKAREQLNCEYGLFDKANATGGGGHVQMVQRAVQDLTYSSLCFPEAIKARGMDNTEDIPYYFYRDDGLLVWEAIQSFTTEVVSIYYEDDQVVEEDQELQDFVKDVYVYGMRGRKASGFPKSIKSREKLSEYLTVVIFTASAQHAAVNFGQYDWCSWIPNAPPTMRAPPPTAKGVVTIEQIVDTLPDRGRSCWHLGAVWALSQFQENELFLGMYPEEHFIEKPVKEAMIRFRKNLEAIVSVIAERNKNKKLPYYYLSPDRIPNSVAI
Procedure: Lipoxygenase IC50 Determination
Assays to determine 5-lipoxygenase activity were performed in […] incubations containing the 20,000xg supernatant from 6×10^4 homogenized RBL-1 cells, 2% DMSO vehicle and various concentrations of the test compound. Reactions were initiated by addition of radiolabelled arachidonic acid and terminated by acidification and ether extraction. Reaction products were separated from nonconverted substrate by thin layer chromatography and measured by liquid scintillation spectroscopy. All treatments were evaluated in triplicate incubations. Inhibition of 5-lipoxygenase activity was computed by comparison of the quantity of products formed in the treatment incubations to the mean product formation in vehicle control groups (n=8). IC50 values and 95% confidence limits were computed by linear regression analysis of percentage inhibition versus log inhibitor concentration plots. The results of the assay indicate that the compounds are inhibitors of 5-lipoxygenase.

| IC50 [nM] | SMILES |
| --- | --- |
| 290 | CC(=O)N(O)C(C)c1ccc2oc3ccccc3c2c1 (stereo not drawn) [Example 1] |
| 380 | CCn1c2ccccc2c2cc(C(C)N(O)C(N)=O)ccc21 (stereo not drawn) [Example 5, N-hydroxy-N-[1-(9-ethylcarbaz-3-yl)ethyl] urea] |
| 390 | CCn1c2ccccc2c2cc(CN(O)C(=O)NC)ccc21 [Example 4, N-hydroxy-N-(9-ethylcarbaz-3-ylmethyl) N-methyl urea] |

From patent publication US4822811A, “Carbazole lipoxygenase inhibiting compounds, compositions and use” (Abbott Laboratories, priority 1988, dated 1989)
